Assay results from ChEMBL document CHEMBL3797140, “Acridin-3,6-dialkyldithiourea hydrochlorides as new photosensitizers for photodynamic therapy of mouse leukemia cells” (Bioorg Med Chem, 2016).
Activity calls are given as the source filed them. The rule behind the calls is not given here.

How the values were obtained:
L1210 [1] = assay: Induction of necrosis in mouse L1210 cells at 0.5 uM preincubated for 1 hr followed by 1.05 J/cm2 UV-A irradiation measured after 5 hrs by Annexin Red based flow cytometry; assay type: functional
L1210 [2] = assay: Decrease in ATP level in mouse L1210 cells at 0.5 uM preincubated for 1 hr followed by 1.05 J/cm2 UV-A irradiation measured after 6 hrs by luciferase reporter assay; assay type: functional; parameters: scale not given: the % may be the effect or the level left
[3] = Drug uptake in nucleus of mouse L1210 cells at 2 uM preincubated for 1 hr followed by 1.05 J/cm2 UV-A irradiation by SytoRed staining-based flow cytometry; assay type: ADME, cell-based; details: l1210, 2 µM
[4] = Drug uptake in mitochondria of mouse L1210 cells at 2 uM preincubated for 1 hr followed by 1.05 J/cm2 UV-A irradiation by MitoRed staining-based flow cytometry; assay type: ADME; details: l1210, 2 µM
[5] = Drug uptake in lysosome of mouse L1210 cells at 2 uM preincubated for 1 hr followed by 1.05 J/cm2 UV-A irradiation by LysoTracker staining-based flow cytometry; assay type: ADME, cell-based; details: l1210, 2 µM
L1210 [6] = assay: Phototoxicity against mouse L1210 cells assessed as cell viability preincubated for 1 hr followed by 1.05 J/cm2 UV-A irradiation measured after 48 hrs by MTT assay in presence of pepstatin A; assay type: functional, cell-based
L1210 [7] = assay: Phototoxicity against mouse L1210 cells assessed as cell viability preincubated for 1 hr followed by 1.05 J/cm2 UV-A irradiation measured after 48 hrs by MTT assay in presence of 3-methyladenine; assay type: functional, cell-based
L1210 [8] = assay: Induction of necrosis in mouse L1210 cells at >= 1 uM preincubated for 1 hr followed by 1.05 J/cm2 UV-A irradiation; assay type: functional
L1210 [9] = assay: Induction of apoptosis in mouse L1210 cells assessed as caspase 3 activation at 0.5 to 1 uM preincubated for 1 hr followed by 1.05 J/cm2 UV-A irradiation measured after 4 to 6 hrs by Western blot method; assay type: functional, cell-based
L1210 [10] = assay: Induction of apoptosis in mouse L1210 cells assessed as caspase 9 activation at 1 uM preincubated for 1 hr followed by 1.05 J/cm2 UV-A irradiation measured after 4 to 6 hrs by Western blot method; assay type: functional, cell-based
L1210 [11] = assay: Induction of apoptosis in mouse L1210 cells assessed as Bax level at 0.5 to 1 uM preincubated for 1 hr followed by 1.05 J/cm2 UV-A irradiation measured after 4 to 6 hrs by Western blot method; assay type: functional, cell-based
L1210 [12] = assay: Induction of apoptosis in mouse L1210 cells assessed as decrease in Bcl2 level at 0.5 to 1 uM preincubated for 1 hr followed by 1.05 J/cm2 UV-A irradiation measured after 4 to 6 hrs by Western blot method; assay type: functional, cell-based
L1210 [13] = assay: Induction of autophagy in mouse L1210 cells assessed as accumulation of LC3BII at 0.5 to 1 uM preincubated for 1 hr followed by 1.05 J/cm2 UV-A irradiation measured after 4 to 6 hrs by Western blot method; assay type: functional, cell-based
L1210 [14] = assay: Induction of apoptosis in mouse L1210 cells assessed as caspase 3 activation at 0.5 uM preincubated for 1 hr measured after 8 hrs by Western blot method in absence of light; assay type: cell-based; details: l1210, 8 h
L1210 [15] = assay: Induction of apoptosis in mouse L1210 cells assessed as caspase 9 activation at 0.5 uM preincubated for 1 hr measured after 8 hrs by Western blot method in absence of light; assay type: cell-based; details: l1210, 8 h
L1210 [16] = assay: Induction of apoptosis in mouse L1210 cells assessed as Bax level at 0.5 uM preincubated for 1 hr measured after 8 hrs by Western blot method in absence of light; assay type: cell-based; details: l1210, 8 h
L1210 [17] = assay: Induction of apoptosis in mouse L1210 cells assessed as decrease in Bcl2 level at 0.5 uM preincubated for 1 hr measured after 8 hrs by Western blot method in absence of light; assay type: cell-based; details: l1210, 8 h
L1210 [18] = assay: Induction of autophagy in mouse L1210 cells assessed as accumulation of LC3BII at 0.5 uM preincubated for 1 hr measured after 8 hrs by Western blot method in absence of light; assay type: cell-based; details: l1210, 8 h
[19] = Induction of ROS generation measured after UV-A irradiation by spin trapping agent DMPO based EPR spectroscopy; assay type: physicochemical
[20] = Cytotoxicity against human HL60 cells after 48 hrs by MTT assay; assay type: functional, cell-based; details: HL-60, 48 h
[21] = Cytotoxicity against human HL60/ADR cells after 48 hrs by MTT assay; assay type: functional, cell-based
[22] = Induction of ROS generation measured 2 mins after UV-A irradiation by spin trapping agent DMPO based EPR spectroscopy; assay type: physicochemical
L1210 [23] = assay: Induction of cell cycle arrest in mouse L1210 cells assessed as accumulation at G1 phase at 0.5 and 1 uM preincubated for 1 hr followed by 1.05 J/cm2 UV-A irradiation measured after 24 hrs by propidium iodide staining-based flow cytometry (reference value: 16.8 +/- 0.6%); assay type: functional
L1210 [24] = assay: Phototoxicity against mouse L1210 cells assessed as cell viability preincubated with 0.5 nM bafilomycin A1 followed by compound exposure for 1 hr followed by 1.05 J/cm2 UV-A irradiation measured after 48 hrs by MTT assay in presence of pepstatin A; assay type: functional, cell-based
L1210 [25] = assay: Phototoxicity against mouse L1210 cells assessed as cell viability preincubated with 10 nM chloroquine followed by compound exposure for 1 hr followed by 1.05 J/cm2 UV-A irradiation measured after 48 hrs by MTT assay in presence of pepstatin A; assay type: functional, cell-based
[26] = Drug uptake in lysosome of mouse L1210 cells at 2 uM preincubated with […] followed by compound exposure for 1 hr followed by 1.05 J/cm2 UV-A irradiation by LysoTracker staining-based flow cytometry; assay type: ADME, cell-based; details: l1210, 1 h
[27] = Drug uptake in lysosome of mouse L1210 cells at 2 uM preincubated with 10.5 nM bafilomycin A1 followed by compound exposure for 1 hr followed by 1.05 J/cm2 UV-A irradiation by LysoTracker staining-based flow cytometry; assay type: ADME, cell-based; details: l1210, 1 h

Question: Which Activity (L1210 [1]) does the source give for CCCNC(=S)Nc1ccc2cc3ccc(NC(=S)NCCC)cc3nc2c1.Cl here?
Answer: 24%

Question: And the Activity (L1210 [2])?
Answer: 30%

Question: What about the Drug uptake [3] of the same molecule?
Answer: Active

Question: And the Drug uptake [4]?
Answer: 53%

Question: What about the Drug uptake [5] of the same molecule?
Answer: Active

Question: And the Activity (L1210 [6])?
Answer: inactive

Question: And the Activity (L1210 [7])?
Answer: inactive

Question: What about the Activity (L1210 [8]) of the same molecule?
Answer: 95%

Question: What about the Activity (L1210 [9]) of the same molecule?
Answer: inactive

Question: And the Activity (L1210 [10])?
Answer: Active

Question: What about the Activity (L1210 [11]) of the same molecule?
Answer: inactive

Question: What about the Activity (L1210 [12]) of the same molecule?
Answer: Active

Question: What about the Activity (L1210 [13]) of the same molecule?
Answer: Active

Question: And the Activity (L1210 [14])?
Answer: Non-toxic

Question: And the Activity (L1210 [15])?
Answer: Non-toxic

Question: What about the Activity (L1210 [16]) of the same molecule?
Answer: Non-toxic

Question: And the Activity (L1210 [17])?
Answer: Non-toxic

Question: And the Activity (L1210 [18])?
Answer: Non-toxic

Question: What about the Activity [19] of the same molecule?
Answer: Active

Question: And the IC50 [20]?
Answer: 7.2 µM

Question: What about the IC50 [21] of the same molecule?
Answer: 7.2 µM

Question: And the Activity [22]?
Answer: Active

Question: What about the Activity (L1210 [23]) of the same molecule?
Answer: Active

Question: What about the Activity (L1210 [24]) of the same molecule?
Answer: inactive

Question: What about the Activity (L1210 [25]) of the same molecule?
Answer: inactive

Question: And the Drug uptake [26]?
Answer: Not Active

Question: What about the Drug uptake [27] of the same molecule?
Answer: Not Active
